Assay results from PubChem BioAssay (NCI).
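Where inhibition never reached the appropriate level, the endpoint shown equals the highest concentration tested. Otherwise, values were interpolated linearly from a five-concentration, 48-hour dose response in 96-well plates. GI50 marks 50% less growth. TGI: concentration producing complete growth inhibition.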

Tests used:
Experiment in all cases: growth of human tumour cells (NCI), 48 h
SK-MEL-5 melanoma = tested on: SK-MEL-5 melanoma
HT29 colon = tested on: HT29 colon
786-0 renal = tested on: 786-0 renal
NCI-H460 lung = tested on: NCI-H460 lung
HOP-92 NSCLC = tested on: HOP-92 NSCLC
NCI-H23 lung = tested on: NCI-H23 lung
NCI-H226 lung = tested on: NCI-H226 lung
MCF7 breast = tested on: MCF7 breast
T-47D breast = tested on: T-47D breast
ACHN renal = tested on: ACHN renal
HCC-2998 colon = tested on: HCC-2998 colon
SK-MEL-2 melanoma = tested on: SK-MEL-2 melanoma
IGROV1 ovarian = tested on: IGROV1 ovarian
CAKI-1 renal = tested on: CAKI-1 renal
HCT-116 colon = tested on: HCT-116 colon
OVCAR-5 ovarian = tested on: OVCAR-5 ovarian
SK-OV-3 ovarian = tested on: SK-OV-3 ovarian
DU-145 prostate = tested on: DU-145 prostate
MDA-MB-231 breast = tested on: MDA-MB-231 breast
SW-620 colon = tested on: SW-620 colon
MOLT-4 leukemia = tested on: MOLT-4 leukemia
MALME-3M melanoma = tested on: MALME-3M melanoma
SF-268 CNS = tested on: SF-268 CNS
OVCAR-8 ovarian = tested on: OVCAR-8 ovarian
OVCAR-3 ovarian = tested on: OVCAR-3 ovarian
SF-295 CNS = tested on: SF-295 CNS
K-562 leukemia = tested on: K-562 leukemia
HCT-15 colon = tested on: HCT-15 colon
SNB-19 CNS = tested on: SNB-19 CNS
SNB-75 CNS = tested on: SNB-75 CNS
U251 CNS = tested on: U251 CNS
SK-MEL-28 melanoma = tested on: SK-MEL-28 melanoma
CCRF-CEM leukemia = tested on: CCRF-CEM leukemia
UO-31 renal = tested on: UO-31 renal
HOP-62 NSCLC = tested on: HOP-62 NSCLC
PC-3 prostate = tested on: PC-3 prostate
COLO 205 colon = tested on: COLO 205 colon
M14 melanoma = tested on: M14 melanoma
HS 578T breast = tested on: HS 578T breast
TK-10 renal = tested on: TK-10 renal
SR leukemia = tested on: SR leukemia
A549 NSCLC = tested on: A549 NSCLC
LOX IMVI melanoma = tested on: LOX IMVI melanoma
EKVX NSCLC = tested on: EKVX NSCLC
RPMI-8226 leukemia = tested on: RPMI-8226 leukemia
NCI/ADR-RES ovarian = tested on: NCI/ADR-RES ovarian
UACC-62 melanoma = tested on: UACC-62 melanoma
UACC-257 melanoma = tested on: UACC-257 melanoma
OVCAR-4 ovarian = tested on: OVCAR-4 ovarian
SN12C renal = tested on: SN12C renal
RXF 393 renal = tested on: RXF 393 renal
NCI-H522 lung = tested on: NCI-H522 lung
A498 renal = tested on: A498 renal
MDA-MB-435 = tested on: MDA-MB-435
SF-539 CNS = tested on: SF-539 CNS
BT-549 breast = tested on: BT-549 breast
KM12 colon = tested on: KM12 colon

## C/C(=N\n1c(N)c(C#N)c(-c2ccc(Cl)cc2)c(C#N)c1=O)c1ccncc1
SK-MEL-5 melanoma
  GI50: 21.8 µM
  TGI: > 100 µM
HT29 colon
  GI50: > 100 µM
  TGI: > 100 µM
786-0 renal
  GI50: 6.95 µM
  TGI: 34 µM
NCI-H460 lung
  GI50: 22.4 µM
  TGI: 82.5 µM
HOP-92 NSCLC
  GI50: 0.61 µM
  TGI: 4.17 µM
NCI-H23 lung
  GI50: 11 µM
  TGI: 45.7 µM
NCI-H226 lung
  GI50: 18.5 µM
  TGI: 54.5 µM
MCF7 breast
  GI50: 5.7 µM
  TGI: 93.9 µM
T-47D breast
  GI50: 7.81 µM
  TGI: 85.3 µM
ACHN renal
  GI50: 20.9 µM
  TGI: 49.5 µM
HCC-2998 colon
  GI50: > 100 µM
  TGI: > 100 µM
SK-MEL-2 melanoma
  GI50: 27.8 µM
  TGI: > 100 µM
IGROV1 ovarian
  GI50: 5.02 µM
  TGI: > 100 µM
CAKI-1 renal
  GI50: 16.7 µM
  TGI: > 100 µM
HCT-116 colon
  GI50: 11.9 µM
  TGI: 31.7 µM
OVCAR-5 ovarian
  GI50: 60.4 µM
  TGI: > 100 µM
SK-OV-3 ovarian
  GI50: 10.1 µM
  TGI: 64.6 µM
DU-145 prostate
  GI50: 11.1 µM
  TGI: 44.7 µM
MDA-MB-231 breast
  GI50: 12.6 µM
  TGI: 44.2 µM
SW-620 colon
  GI50: 31.5 µM
  TGI: > 100 µM
MOLT-4 leukemia
  GI50: > 100 µM
  TGI: > 100 µM
MALME-3M melanoma
  GI50: 7.54 µM
  TGI: > 100 µM
SF-268 CNS
  GI50: 9.83 µM
  TGI: 61.4 µM
OVCAR-8 ovarian
  GI50: 2.95 µM
  TGI: 12.4 µM
OVCAR-3 ovarian
  GI50: 3.7 µM
  TGI: 21.5 µM
SF-295 CNS
  GI50: 4.65 µM
  TGI: 86 µM
K-562 leukemia
  GI50: > 100 µM
  TGI: > 100 µM
HCT-15 colon
  GI50: 58.2 µM
  TGI: > 100 µM
SNB-19 CNS
  GI50: 10.6 µM
  TGI: > 100 µM
SNB-75 CNS
  GI50: 6.11 µM
  TGI: 26.6 µM
U251 CNS
  GI50: 19.6 µM
  TGI: 44.6 µM
SK-MEL-28 melanoma
  GI50: 56.8 µM
  TGI: > 100 µM
CCRF-CEM leukemia
  GI50: > 100 µM
  TGI: > 100 µM
UO-31 renal
  GI50: 7.33 µM
  TGI: > 100 µM
HOP-62 NSCLC
  GI50: 16.9 µM
  TGI: 48.8 µM
PC-3 prostate
  GI50: 2.41 µM
  TGI: 16.8 µM
COLO 205 colon
  GI50: > 100 µM
  TGI: > 100 µM
M14 melanoma
  GI50: > 100 µM
  TGI: > 100 µM
HS 578T breast
  GI50: 6.4 µM
  TGI: 75.8 µM
TK-10 renal
  GI50: 6.04 µM
  TGI: 38.9 µM
SR leukemia
  GI50: 3.3 µM
  TGI: > 100 µM
A549 NSCLC
  GI50: 7.58 µM
  TGI: 65.4 µM
LOX IMVI melanoma
  GI50: 35.4 µM
  TGI: > 100 µM
EKVX NSCLC
  GI50: 6.13 µM
  TGI: > 100 µM
RPMI-8226 leukemia
  GI50: 7.96 µM
  TGI: 69.7 µM
NCI/ADR-RES ovarian
  GI50: 5.28 µM
  TGI: 31.3 µM
UACC-62 melanoma
  GI50: 36.4 µM
  TGI: > 100 µM
UACC-257 melanoma
  GI50: 13.5 µM
  TGI: 95.3 µM
OVCAR-4 ovarian
  GI50: 11.1 µM
  TGI: 43.6 µM
SN12C renal
  GI50: 9.88 µM
  TGI: 41.1 µM

## C=C(CNCCc1ccc(O)cc1)[C@@H]1CC[C@]2(CO)CC[C@]3(C)[C@H](CC[C@@H]4[C@@]5(C)CCC(N)C(C)(C)[C@@H]5CC[C@]43C)[C@@H]12 (stereo partly drawn)
SK-MEL-5 melanoma
  GI50: 1.69 µM
  TGI: 3.09 µM
RXF 393 renal
  GI50: 1.08 µM
  TGI: 2.36 µM
HT29 colon
  GI50: 0.46 µM
  TGI: 1.81 µM
NCI-H522 lung
  GI50: 1.76 µM
  TGI: 3.42 µM
786-0 renal
  GI50: 1.52 µM
  TGI: 3 µM
NCI-H460 lung
  GI50: 1.51 µM
  TGI: 3.07 µM
HOP-92 NSCLC
  GI50: 1.12 µM
  TGI: 2.49 µM
A498 renal
  GI50: 1.44 µM
  TGI: 2.79 µM
NCI-H226 lung
  GI50: 1.83 µM
  TGI: 3.78 µM
MDA-MB-435
  GI50: 1.52 µM
  TGI: 2.85 µM
T-47D breast
  GI50: 1.64 µM
  TGI: 3.58 µM
ACHN renal
  GI50: 1.78 µM
  TGI: 3.19 µM
HCC-2998 colon
  GI50: 1.66 µM
  TGI: 3.3 µM
SK-MEL-2 melanoma
  GI50: 1.79 µM
  TGI: 3.4 µM
CAKI-1 renal
  GI50: 1.59 µM
  TGI: 3.1 µM
SK-OV-3 ovarian
  GI50: 1.84 µM
  TGI: 3.34 µM
DU-145 prostate
  GI50: 1.63 µM
  TGI: 2.98 µM
MDA-MB-231 breast
  GI50: 1.11 µM
  TGI: 2.38 µM
SW-620 colon
  GI50: 0.915 µM
  TGI: 2.27 µM
MALME-3M melanoma
  GI50: 1.58 µM
  TGI: 3.09 µM
SF-268 CNS
  GI50: 1.52 µM
  TGI: 3.03 µM
OVCAR-8 ovarian
  GI50: 0.0235 µM
  TGI: 1.39 µM
OVCAR-3 ovarian
  GI50: 1.65 µM
  TGI: 3.1 µM
SF-295 CNS
  GI50: 1.73 µM
  TGI: 3.3 µM
SNB-19 CNS
  GI50: 1.22 µM
  TGI: 2.53 µM
SNB-75 CNS
  GI50: 1.24 µM
  TGI: 2.49 µM
U251 CNS
  GI50: 0.917 µM
  TGI: 2.12 µM
SK-MEL-28 melanoma
  GI50: 1.76 µM
  TGI: 3.28 µM
CCRF-CEM leukemia
  GI50: 0.28 µM
  TGI: 1.23 µM
UO-31 renal
  GI50: 1.42 µM
  TGI: 2.76 µM
HOP-62 NSCLC
  GI50: 1.73 µM
  TGI: 3.36 µM
PC-3 prostate
  GI50: 1.44 µM
  TGI: 2.98 µM
COLO 205 colon
  GI50: 1.64 µM
  TGI: 3.3 µM
M14 melanoma
  GI50: 1.75 µM
  TGI: 3.33 µM
TK-10 renal
  GI50: 1.73 µM
  TGI: 3.22 µM
SF-539 CNS
  GI50: 1.56 µM
  TGI: 2.94 µM
BT-549 breast
  GI50: 1.7 µM
  TGI: 3.53 µM
KM12 colon
  GI50: 1.48 µM
  TGI: 2.96 µM
A549 NSCLC
  GI50: 1.66 µM
  TGI: 3.13 µM
EKVX NSCLC
  GI50: 1.66 µM
  TGI: 3.36 µM
RPMI-8226 leukemia
  GI50: 1.44 µM
  TGI: 4.04 µM
UACC-257 melanoma
  GI50: 0.195 µM
  TGI: 0.517 µM
OVCAR-4 ovarian
  GI50: 1.44 µM
  TGI: 2.95 µM
SN12C renal
  GI50: 1.56 µM
  TGI: 3.02 µM
